Test results as given in patent US7998995B2 (Exelixis Patent Company LLC, priority 2006, dated 2011).

Experiments:
[1] = test system: T1, LXR; assay: Measured EC50 or IC50 for LXR (LXRα and/or LXRβ; assay and subtype not given); details: IC50 or EC50 class, subtype not specified
T1 construct: fused on or other part: GST fused to the LBD in the FRET assay
Method: (§1) Measured EC50 or IC50 for LXR, and FXR for Compounds of the Invention
(§2) LXR and FXR activities for various compounds of the invention are presented in the following table; those compounds with EC50 or IC50 values <10 μM for at least one of LXRα, LXRβ or FXR are considered to be active. In the following Table, IC50 or EC50 data is represented as follows: A<1 μM, B=1-10 μm, and C>10 μM.

[2] = target: T2, FXR (Homo sapiens, UniProt Q96RI1); assay: Measured EC50 or IC50 for FXR (assay not given); details: IC50 or EC50 class; assay not specified
T2 sequence (Q96RI1 1-472 isoform Q96RI1-2): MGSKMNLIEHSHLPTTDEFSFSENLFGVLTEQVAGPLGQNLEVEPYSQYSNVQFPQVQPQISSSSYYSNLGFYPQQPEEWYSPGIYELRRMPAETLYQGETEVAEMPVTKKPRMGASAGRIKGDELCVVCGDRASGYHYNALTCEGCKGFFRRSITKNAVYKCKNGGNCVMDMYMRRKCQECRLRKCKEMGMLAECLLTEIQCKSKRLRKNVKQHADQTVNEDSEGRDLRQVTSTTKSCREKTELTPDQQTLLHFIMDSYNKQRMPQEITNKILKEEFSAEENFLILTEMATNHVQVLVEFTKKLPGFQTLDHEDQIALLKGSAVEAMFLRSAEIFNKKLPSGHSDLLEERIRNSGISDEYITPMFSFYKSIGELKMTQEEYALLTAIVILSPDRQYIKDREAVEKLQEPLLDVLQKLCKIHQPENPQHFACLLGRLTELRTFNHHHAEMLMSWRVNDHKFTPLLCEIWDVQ
Method: as §1, §2

With `CC(C)(O)c1cc(-c2ccc(-c3cccc(S(C)(=O)=O)c3)s2)n(-c2c(Cl)cccc2Cl)n1` [Example 949, 2-[1-(2,6-dichlorophenyl)-5-{5-[3-(methylsulfonyl)phenyl]-2-thienyl}-1H-pyrazol-3-yl]propan-2-ol] the EC50 [1] was less than 1000 nM and the EC50 [2] was 1000 to 10000 nM.

`CC(C)(O)c1cc(-c2ccc(-c3cccc(S(C)(=O)=O)c3)s2)n(-c2c(F)cccc2Cl)n1` [Example 950, 2-[1-(2-chloro-6-fluorophenyl)-5-{5-[3-(methylsulfonyl)phenyl]-2-thienyl}-1H-pyrazol-3-yl]propan-2-ol] gave an EC50 [1] of less than 1000 nM and an EC50 [2] of 1000 to 10000 nM.

Molecule `CC(C)(O)c1cc(-c2ccc(-c3cccc(S(C)(=O)=O)c3)s2)n(-c2c(F)cccc2C(F)(F)F)n1` [Example 951] has an EC50 [1] of less than 1000 nM and an EC50 [2] of 1000 to 10000 nM.

For `Cc1cccc(Cl)c1-n1nc(C(C)(C)O)cc1-c1ccc(-c2cccc(S(C)(=O)=O)c2)s1` [Example 952, 2-[1-(2-chloro-6-methylphenyl)-5-{5-[3-(methylsulfonyl)phenyl]-2-thienyl}-1H-pyrazol-3-yl]propan-2-ol], the EC50 [1] was less than 1000 nM and the EC50 [2] was 1000 to 10000 nM.

Molecule `CC(C)(O)c1nn(-c2c(Cl)cccc2Cl)c(-c2ccc(-c3cccc(S(C)(=O)=O)c3)s2)c1Cl` [Example 953, 2-[4-chloro-1-(2,6-dichlorophenyl)-5-{5-[3-(methylsulfonyl)phenyl]-2-thienyl}-1H-pyrazol-3-yl]propan-2-ol] has an EC50 [1] of less than 1000 nM and an EC50 [2] of 1000 to 10000 nM.

`CC(C)(O)c1nn(-c2c(F)cccc2Cl)c(-c2ccc(-c3cccc(S(C)(=O)=O)c3)s2)c1Cl` [Example 954, 2-[4-chloro-1-(2-chloro-6-fluorophenyl)-5-{5-[3-(methylsulfonyl)phenyl]-2-thienyl}-1H-pyrazol-3-yl]propan-2-ol] gave an EC50 [1] of less than 1000 nM and an EC50 [2] of 1000 to 10000 nM.

`CC(C)(O)c1cc(-c2ccc(-c3cccc(S(C)(=O)=O)c3)s2)n(-c2c(Cl)cncc2Cl)n1` [Example 955, 2-[1-(3,5-dichloropyridin-4-yl)-5-{5-[3-(methylsulfonyl)phenyl]-2-thienyl}-1H-pyrazol-3-yl]propan-2-ol] gave an EC50 [1] of less than 1000 nM and an EC50 [2] of 1000 to 10000 nM.

`CC(C)(O)c1cc(-c2ccc(-c3cccc(S(C)(=O)=O)c3)cc2)n(-c2c(Cl)cccc2Cl)n1` [Example 956, 2-{1-(2,6-dichlorophenyl)-5-[3′-(methylsulfonyl)biphenyl-4-yl]-1H-pyrazol-3-yl}propan-2-ol] gave an EC50 [1] of less than 1000 nM and an EC50 [2] of 1000 to 10000 nM.

`CC(C)(O)c1nn(-c2c(Cl)cccc2Cl)c(-c2ccc(-c3cccc(S(C)(=O)=O)c3)cc2)c1Cl` [Example 957, 2-{4-chloro-1-(2,6-dichlorophenyl)-5-[3′-(methylsulfonyl)biphenyl-4-yl]-1H-pyrazol-3-yl}propan-2-ol] showed an EC50 [1] of less than 1000 nM and an EC50 [2] of less than 1000 nM.

`CC(C)(O)c1cc(-c2ccc(-c3cccc(S(C)(=O)=O)c3)cc2Cl)n(-c2c(Cl)cccc2Cl)n1` [Example 958, 2-{5-[3-chloro-3′-(methylsulfonyl)biphenyl-4-yl]-1-(2,6-dichlorophenyl)-1H-pyrazol-3-yl}propan-2-ol] gave an EC50 [1] of less than 1000 nM and an EC50 [2] of less than 1000 nM.

`CC(C)(O)c1nn(-c2c(Cl)cccc2Cl)c(-c2ccc(-c3cccc(S(C)(=O)=O)c3)cc2Cl)c1Cl` [Example 959, 2-{4-chloro-5-[3-chloro-3′-(methysulfonyl)biphenyl-4-yl]-1-(2,6-dichlorophenyl)-1H-pyrazol-3-yl}propan-2-ol] showed an EC50 [1] of less than 1000 nM and an EC50 [2] of less than 1000 nM.

`Cc1cc(-c2cccc(S(C)(=O)=O)c2)ccc1-c1cc(C(C)(C)O)nn1-c1c(Cl)cccc1Cl` [Example 960, 2-{1-(2,6-dichlorophenyl)-5-[3-methyl-3′-(methylsulfonyl)biphenyl-4-yl]-1H-pyrazol-3-yl}propan-2-ol] showed an EC50 [1] of less than 1000 nM and an EC50 [2] of less than 1000 nM.

For `Cc1cc(-c2cc(C(C)(C)O)nn2-c2c(Cl)cccc2Cl)ccc1-c1cccc(S(C)(=O)=O)c1` [Example 961, 2-{1-(2,6-dichlorophenyl)-5-[2-methyl-3′-(methylsulfonyl)biphenyl-4-yl]-1H-pyrazol-3-yl}propan-2-ol], the EC50 [1] was 1000 to 10000 nM and the EC50 [2] was less than 1000 nM.
